Laboratory results: PubChem BioAssay (NCI)
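Dose response: 5 concentrations. Exposure: 48 h. Format: 96-well plates. Endpoint: linear interpolation; highest concentration if not reached. At the GI50, growth is halved. TGI marks complete inhibition of growth.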

How the values were obtained:
Experiment in all cases: NCI-60 cell line screen, 48 h
SN12C renal = test system: SN12C renal
HL-60(TB) leukemia = test system: HL-60(TB) leukemia
A549 NSCLC = test system: A549 NSCLC
UACC-257 melanoma = test system: UACC-257 melanoma
MDA-MB-435 = test system: MDA-MB-435
NCI-H226 lung = test system: NCI-H226 lung
NCI/ADR-RES ovarian = test system: NCI/ADR-RES ovarian
A498 renal = test system: A498 renal
ACHN renal = test system: ACHN renal
KM12 colon = test system: KM12 colon

CC1(C)CC(=O)C(C(c2cccc(O)c2O)C2C(=O)CC(C)(C)CC2=O)C(=O)C1
TGI (SN12C renal): > 100 µM
TGI (HL-60(TB) leukemia): > 100 µM
TGI (A549 NSCLC): > 100 µM
TGI (UACC-257 melanoma): > 100 µM
TGI (MDA-MB-435): > 100 µM
TGI (NCI-H226 lung): > 100 µM
TGI (NCI/ADR-RES ovarian): > 100 µM
TGI (A498 renal): > 100 µM
TGI (ACHN renal): > 100 µM
TGI (KM12 colon): > 100 µM

O=C(/C=C/C=C/c1ccccc1)c1ccc(Nc2nc(Nc3ccccc3)nc(Nc3ccccc3)n2)cc1
GI50 (SN12C renal): > 100 µM
TGI (SN12C renal): > 100 µM
GI50 (HL-60(TB) leukemia): 28.7 µM
TGI (HL-60(TB) leukemia): > 100 µM
GI50 (A549 NSCLC): 89.1 µM
TGI (A549 NSCLC): > 100 µM
GI50 (UACC-257 melanoma): > 100 µM
TGI (UACC-257 melanoma): > 100 µM
GI50 (MDA-MB-435): > 100 µM
TGI (MDA-MB-435): > 100 µM
GI50 (NCI-H226 lung): > 100 µM
TGI (NCI-H226 lung): > 100 µM
GI50 (NCI/ADR-RES ovarian): > 100 µM
TGI (NCI/ADR-RES ovarian): > 100 µM
GI50 (A498 renal): 19.8 µM
TGI (A498 renal): > 100 µM
GI50 (ACHN renal): > 100 µM
TGI (ACHN renal): > 100 µM
GI50 (KM12 colon): 57.9 µM
TGI (KM12 colon): > 100 µM

COc1ccccc1CNCCCN1C(=O)c2ccc3c4c(ccc(c24)C1=O)C(=O)N(CCCNCCCCNCCCCN)C3=O
GI50 (SN12C renal): 1.99 µM
TGI (SN12C renal): 5.9 µM
GI50 (HL-60(TB) leukemia): 1.28 µM
TGI (HL-60(TB) leukemia): 5.71 µM
GI50 (A549 NSCLC): 2.3 µM
TGI (A549 NSCLC): 7 µM
GI50 (UACC-257 melanoma): 0.857 µM
TGI (UACC-257 melanoma): 2.22 µM
GI50 (MDA-MB-435): 1.62 µM
TGI (MDA-MB-435): 3.37 µM
GI50 (NCI-H226 lung): 1.83 µM
TGI (NCI-H226 lung): 6.65 µM
GI50 (NCI/ADR-RES ovarian): 12.8 µM
TGI (NCI/ADR-RES ovarian): > 100 µM
GI50 (A498 renal): 0.472 µM
TGI (A498 renal): 4.51 µM
GI50 (ACHN renal): 2.82 µM
TGI (ACHN renal): > 33.9 µM
GI50 (KM12 colon): 2.42 µM
TGI (KM12 colon): 6.91 µM

Cn1cc(C2=C(c3c4n(c5ccccc35)CC(CN)C4)C(=O)NC2=O)c2ccccc21 (centres undefined)
GI50 (SN12C renal): 3.4 µM
TGI (SN12C renal): 11 µM
GI50 (HL-60(TB) leukemia): 3.35 µM
TGI (HL-60(TB) leukemia): 9.91 µM
GI50 (A549 NSCLC): 3.74 µM
TGI (A549 NSCLC): 10.9 µM
GI50 (UACC-257 melanoma): 3.92 µM
TGI (UACC-257 melanoma): 7.8 µM
GI50 (MDA-MB-435): 1.11 µM
TGI (MDA-MB-435): 4.72 µM
GI50 (NCI-H226 lung): 3.93 µM
TGI (NCI-H226 lung): 18 µM
GI50 (NCI/ADR-RES ovarian): 10.1 µM
TGI (NCI/ADR-RES ovarian): 25 µM
GI50 (A498 renal): 2.96 µM
TGI (A498 renal): 6.4 µM
GI50 (ACHN renal): 3.16 µM
TGI (ACHN renal): 12.3 µM
GI50 (KM12 colon): 3.46 µM
TGI (KM12 colon): 9.22 µM

C(=N/Nc1ncnc2nc[nH]c12)/c1ccccn1
GI50 (SN12C renal): 0.84 µM
TGI (SN12C renal): > 65.1 µM
GI50 (HL-60(TB) leukemia): 1.01 µM
TGI (HL-60(TB) leukemia): 7.07 µM
GI50 (A549 NSCLC): 1.27 µM
TGI (A549 NSCLC): > 100 µM
GI50 (UACC-257 melanoma): 1.87 µM
TGI (UACC-257 melanoma): 7.96 µM
GI50 (MDA-MB-435): 1.08 µM
TGI (MDA-MB-435): > 100 µM
GI50 (NCI-H226 lung): 1.57 µM
TGI (NCI-H226 lung): 53.1 µM
GI50 (NCI/ADR-RES ovarian): 0.382 µM
TGI (NCI/ADR-RES ovarian): > 22.3 µM
GI50 (A498 renal): 6.17 µM
TGI (A498 renal): > 100 µM
GI50 (ACHN renal): 1.19 µM
TGI (ACHN renal): 14.1 µM
GI50 (KM12 colon): 0.661 µM
TGI (KM12 colon): > 100 µM

C[As](C)Sc1ccnc(S[As](C)C)n1
GI50 (SN12C renal): 3.41 µM
TGI (SN12C renal): 15.8 µM
GI50 (HL-60(TB) leukemia): 1.13 µM
GI50 (A549 NSCLC): 8.51 µM
TGI (A549 NSCLC): > 41.7 µM
GI50 (UACC-257 melanoma): 5 µM
TGI (UACC-257 melanoma): 27.1 µM
GI50 (MDA-MB-435): 1.8 µM
TGI (MDA-MB-435): > 27.9 µM
GI50 (NCI-H226 lung): 31.2 µM
TGI (NCI-H226 lung): > 100 µM
GI50 (NCI/ADR-RES ovarian): 7.72 µM
TGI (NCI/ADR-RES ovarian): > 25.9 µM
GI50 (A498 renal): 26 µM
TGI (A498 renal): > 100 µM
GI50 (ACHN renal): 1.85 µM
TGI (ACHN renal): 15.1 µM
GI50 (KM12 colon): 9.52 µM
TGI (KM12 colon): > 51.9 µM

O=S(=O)(O)c1ccc(Cl)cc1.[Cd]
GI50 (SN12C renal): > 100 µM
TGI (SN12C renal): > 100 µM
GI50 (HL-60(TB) leukemia): 51.7 µM
TGI (HL-60(TB) leukemia): > 100 µM
GI50 (A549 NSCLC): > 100 µM
TGI (A549 NSCLC): > 100 µM
GI50 (UACC-257 melanoma): 29.6 µM
TGI (UACC-257 melanoma): 78.8 µM
GI50 (MDA-MB-435): 20.5 µM
TGI (MDA-MB-435): 63 µM
GI50 (NCI-H226 lung): > 100 µM
TGI (NCI-H226 lung): > 100 µM
GI50 (NCI/ADR-RES ovarian): > 100 µM
TGI (NCI/ADR-RES ovarian): > 100 µM
GI50 (A498 renal): > 100 µM
TGI (A498 renal): > 100 µM
GI50 (ACHN renal): > 100 µM
TGI (ACHN renal): > 100 µM
GI50 (KM12 colon): 73.4 µM
TGI (KM12 colon): > 100 µM

COc1ccc(/C=C2\N=C(c3ccccc3)N(c3cc(C(F)(F)F)ccc3Cl)C2=O)cc1OC
GI50 (SN12C renal): 65.7 µM
TGI (SN12C renal): > 100 µM
GI50 (HL-60(TB) leukemia): 17.6 µM
TGI (HL-60(TB) leukemia): 47.3 µM
GI50 (A549 NSCLC): 82 µM
TGI (A549 NSCLC): > 100 µM
GI50 (UACC-257 melanoma): > 100 µM
TGI (UACC-257 melanoma): > 100 µM
GI50 (MDA-MB-435): 40.6 µM
TGI (MDA-MB-435): > 100 µM
GI50 (NCI-H226 lung): 56.6 µM
TGI (NCI-H226 lung): > 100 µM
GI50 (NCI/ADR-RES ovarian): 55.6 µM
TGI (NCI/ADR-RES ovarian): > 100 µM
GI50 (A498 renal): > 100 µM
TGI (A498 renal): > 100 µM
GI50 (ACHN renal): 58.1 µM
TGI (ACHN renal): > 100 µM
GI50 (KM12 colon): 39 µM
TGI (KM12 colon): > 100 µM

O=C(c1ccccc1)c1ccc(Cl)c([N+](=O)[O-])c1
GI50 (SN12C renal): 3.81 µM
TGI (SN12C renal): 14.8 µM
GI50 (HL-60(TB) leukemia): 2.56 µM
TGI (HL-60(TB) leukemia): 6.58 µM
GI50 (A549 NSCLC): 16.3 µM
TGI (A549 NSCLC): 40.5 µM
GI50 (UACC-257 melanoma): 6.26 µM
TGI (UACC-257 melanoma): 21.6 µM
GI50 (MDA-MB-435): 4.53 µM
TGI (MDA-MB-435): 17.1 µM
GI50 (NCI-H226 lung): 19.8 µM
TGI (NCI-H226 lung): 51.7 µM
GI50 (NCI/ADR-RES ovarian): 21.3 µM
TGI (NCI/ADR-RES ovarian): 58.3 µM
GI50 (A498 renal): 16 µM
TGI (A498 renal): 30.9 µM
GI50 (ACHN renal): 7.14 µM
TGI (ACHN renal): 21.3 µM
GI50 (KM12 colon): 5.97 µM
TGI (KM12 colon): 18.9 µM

C/C(=N\Nc1ccc2ccccc2n1)c1ccccc1O
TGI (SN12C renal): > 100 µM
TGI (HL-60(TB) leukemia): > 100 µM
TGI (A549 NSCLC): > 100 µM
TGI (UACC-257 melanoma): > 100 µM
TGI (MDA-MB-435): > 100 µM
TGI (NCI-H226 lung): > 100 µM
TGI (NCI/ADR-RES ovarian): > 100 µM
TGI (A498 renal): > 100 µM
TGI (ACHN renal): > 100 µM
TGI (KM12 colon): > 100 µM
